Assay results: patent publication EP0195397A1, “m-Cyanophenethanolamines as animal growth promoters and antilipogenic agents” (AMERICAN CYANAMID COMPANY, priority 1985, dated 1986)
Where two headings read alike, the source gives them in different places.

Tests used:
[1] = target: T1, Beta-1 adrenergic receptor membranes (Meleagris gallopavo, UniProt P07700); test: Beta-1 adrenergic activity by (H3) dihydroalprenolol radioligand binding to receptor membranes; set-up: species or system turkey
T1 construct: Freshly drawn heparinized whole blood from turkeys and rats is centrifuged; from tissue; host or cells: erythrocyte membranes from freshly drawn turkey blood
Procedure: Beta-1 adrenergic activity of experimental compounds is identified by radioactive ligand-binding studies by using beta adrenergic receptor membranes and adrenergic antagonist (H3) dihydroalprenolol (DHA). Binding of (H3) DHA to membrane fractions is assayed by filtration on glass fiber filters. Specific binding is defined as total radioactivity bound minus nonspecific bound radioactivity, i.e., binding in the presence of 100 µM non-radioactive DHA. Results are expressed as the concentrations of the compound required to displace […] radioactive ligand from binding of beta adrenergic receptors (K-50).
In these tests, beta adrenergic receptor membranes are incubated with radioactive dihydroalprenolol (H3 DHA) and experimental compounds. The bound radio- ligand is separated by filtration on glass fiber filters and counted by scintillation counter.
Beta-1 adrenergic receptor membranes are isolated from turkey and rat erythrocytes respectively using the procedures of: • Hancock, A., DeLean, A., Lefkowitz, R. J. Mol. Pharmacol. 16:1, 1979; • DeLean, A, Hancock A., Lefkowitz, R. J. Mol. Pharmacol. 21:5, 1979; or • Lefkowitz, R. J., Stadel, J. M., and Caron, M. G. Ann. Rev. Biochem 52:157, 1983.
Freshly drawn heparinized whole blood from turkeys and rats is centrifuged for five minutes ([…]). The plasma is withdrawn; the remaining erythrocytes are suspended in 150mM sodium chloride solutions and centrifuged. The cells are resuspended and centrifuged twice more. […] The protein concentration of receptor membranes is determined by the biuret method.
To duplicate incubation, tubes are added 200 µl suspended membranes (200 µg protein), 25 µl of compound in solution or buffer and 25 µl (H3) dihydroalprenolol ([…]). […] The filters are rinsed three times with 5 mL of cold buffer (145 mM NaCl, 1 mM ethylenediaminetetraacetic acid, and 10 mM tris, pH 7.4) and subsequently counted by liquid scintillation counter in 10 mL of aquasol. […]

[2] = Evaluation of test compounds as animal growth promoters and antilipogenic agents - mouse test; type: in vivo, CFI female mice; conditions: 12-day test period; for Gain (grams): weight gain per cage of ten mice; for % Reduction in fat pad weight vs controls: right uterine fat pad, minus sign = reduction
Procedure: CFI female mice from Carworth Farms are received when they are six-weeks old. They are housed ten to a cage in air-conditioned rooms (22 °C to 25 °C) with automatically-controlled lights, 14 hours on and ten hours off. The basal diet used in these studies is Purina Laboratory Chow (see description below) which is supplied ad libitum. The following is a description of the diet to which the growth-promoting compounds were added. Thirteen days after arrival, the mice are weighed in groups of ten and assigned at random to the different treatments. Each of the treatments is tested in three replicates, i.e., in three cages of ten mice each. There are ten cages of ten control mice each. Drugs are mixed in the diet at the dosage level indicated. Feed and water are offered ad libitum for a 12-day test period. Feed spilled is collected during the test period. At the end of the test period, the collected feed is weighed, and the mean feed consumption per cage of ten mice is determined for each treatment. The mice are weighed as a group of ten, and the weight gain determined. The mice are sacrificed by cervical dislocation. The right uterine fat pad of each mouse is removed. The fat pads for each cage of ten mice are weighed as a unit. Reduction in fat pad weights of animals is generally indicative of a reduction of total body fat of the treated animals.

[3] = concentration required to displace 50% radioactive ligand ((H3) DHA), 23°C, one hour, read-out: β1 K-50

T1 sequence (P07700 whole entry): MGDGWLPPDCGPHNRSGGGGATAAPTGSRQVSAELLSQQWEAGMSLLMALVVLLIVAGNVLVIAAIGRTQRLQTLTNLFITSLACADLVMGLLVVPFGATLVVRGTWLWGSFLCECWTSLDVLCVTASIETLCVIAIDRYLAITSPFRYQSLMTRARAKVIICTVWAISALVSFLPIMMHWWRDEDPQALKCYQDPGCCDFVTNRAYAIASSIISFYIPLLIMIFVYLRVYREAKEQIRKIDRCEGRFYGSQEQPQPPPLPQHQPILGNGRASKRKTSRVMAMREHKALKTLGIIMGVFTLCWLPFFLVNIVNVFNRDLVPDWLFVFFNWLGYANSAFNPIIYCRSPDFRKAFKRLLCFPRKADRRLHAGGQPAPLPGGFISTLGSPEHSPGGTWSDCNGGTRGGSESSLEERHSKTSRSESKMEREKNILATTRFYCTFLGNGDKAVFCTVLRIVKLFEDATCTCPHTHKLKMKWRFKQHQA

| Compound | IC50 [1] [µM] | Gain (grams) ([2]; 3 ppm in diet) | Gain (grams) ([2]; 6 ppm in diet) | Gain (grams) ([2]; 12 ppm in diet) | Gain (grams) ([2]; 25 ppm in diet) | Gain (grams) ([2]; 50 ppm in diet) | % Reduction in fat pad weight vs controls ([2]; 100 ppm in diet) [%] | Gain (grams) ([2]; 100 ppm in diet) | Gain (grams) ([2]; 200 ppm in diet) | % Reduction in fat pad weight vs controls ([2]; 25 ppm in diet) | % Reduction in fat pad weight vs controls ([2]; 50 ppm in diet) [%] | IC50 [1, 3] [µM] |
| --- | --- | --- | --- | --- | --- | --- | --- | --- | --- | --- | --- | --- |
| CC(C)(C)NCC(O)c1cc(Cl)c(N)c(Cl)c1 (stereo not drawn) [Clenbuterol, reference compound] | 0.977 |  |  |  |  |  |  |  |  |  |  |  |
| CC(C)NCC(O)c1cccc(C#N)c1 (stereo not drawn) [the 2nd table drawing] |  | 32.4 | 23.4 | 29.4 | 37.1 | 37.4 | -9.1 | 37.3 | 39.0 |  |  |  |
| CC(C)(C)NCC(O)c1cccc(C#N)c1 (stereo not drawn) [the 3rd table drawing] |  | 29.3 | 37.4 | 30.5 | 35.9 | 41.1 | -16.9 | 36.1 | 33.2 | +5.2% | -11.6 |  |
| CC(C)NCC(O)c1cccc(C#N)c1 (stereo not drawn) [the 4th table, row 4 drawing] |  |  |  |  |  |  |  |  |  |  |  | > 100 |
| CC(C)(C)NCC(O)c1cccc(C#N)c1 (stereo not drawn) [the 4th table, row 5 drawing] |  |  |  |  |  |  |  |  |  |  |  | > 100 |
